Like-named read-outs stand apart in the source and are kept apart here.
What was measured:
[1] = Micro-dissolution comparative study of potential salts (pH transfer model); type: physicochemical; set-up: AUC pH 2-6.5 Mean / AUC pH 6-6.5 Mean: unit not given beside the values; details: for pH-effect Ratio: AUC pH 6-6.5 over AUC pH 2-6.5
[2] = Dog PK study, pH effect of free base vs. HCl salt; type: in vivo; details: capsule, 10 mg (1 mpk), Penta
[3] = Dog PK study, pH effect of free base vs. HCl salt; type: in vivo; details: for BA Mean / Cmax / Tmax / AUC(0-t): dog, capsule, 10 mg (1 mpk), famotidine treated (Famo); for Cmax / Tmax / AUC(0-t): in vivo, po, 1 mg/kg; for AUC(0-t): read-out: AUC0-24 h Mean
Excerpt: In famotidine treated dogs, the mean bioavailability of the HCl salt is 60% higher than the free base.

[4] = Physical and chemical stability of Form B on storage at different temperature and humidity; type: physicochemical
Procedure: Samples of Form B of Compound (I) were stored at different conditions of temperature and humidity for 4 weeks. The physical stability, characterized by DSC, TGA, and PXRD, were measured at 2 and 4 weeks.

[5] = Moisture sorption isotherm; type: physicochemical
Procedure: Moisture sorption isotherms were collected in a TA Instrument VTI-SA+Vapor Sorption Analyzer using approximately 10 mg of sample. The sample was dried at 60° C. until the loss rate of 0.0005 wt %/min was obtained for 10 minutes. The sample was tested at 25° C. and 3 or 4, 5, 15, 25, 35, 45, 50, 65, 75, 85, and 95% RH. Equilibration at each RH was reached when the rate of 0.0003 wt %/min for 35 minutes was achieved or a maximum of 600 minutes.

[6] = Physical and chemical stability of Form B on storage at different temperature and humidity; type: physicochemical; remark: listed apart in the source

Structure (SMILES): [2H]C([2H])([2H])NC(=O)c1nnc(NC(=O)C2CC2)cc1Nc1cccc(-c2ncn(C)n2)c1OC [Compound (I), 6-(cyclopropanecarboxamido)-4-((2-methoxy-3-(1-methyl-1H-1,2,4-triazol-3-yl)phenyl)amino)-N-(methyl-d3)pyridazine-3-carboxamide]
- pH-effect Ratio [1]: 0.27
- AUC pH 2-6.5 Mean [1]: 6094.11
- AUC pH 6-6.5 Mean [1]: 1640.60
- BA Mean [2]: 100.00%
- Cmax ([2]; in vivo, po, 1 mg/kg): 122 ng/mL
- Tmax ([2]; in vivo, po, 1 mg/kg): 2.5 h
- AUC(0-t) ([2]; in vivo, po, 1 mg/kg, read-out: AUC0-24 h Mean): 975 ng·h/mL
- BA Mean [3]: 85.44%
- Cmax [3]: 62.8 ng/mL
- Tmax [3]: 3.5 h
- AUC(0-t) [3]: 586 ng·h/mL

Structure (SMILES): Cl.[2H]C([2H])([2H])NC(=O)c1nnc(NC(=O)C2CC2)cc1Nc1cccc(-c2ncn(C)n2)c1OC [Form B of Compound (I), 6-(cyclopropanecarboxamido)-4-((2-methoxy-3-(1-methyl-1H-1,2,4-triazol-3-yl)phenyl)amino)-N-(methyl-d3)pyridazine-3-carboxamide HCl salt]
- pH-effect Ratio [1]: 0.61
- Mitigation of the pH effect ([1]; comparison of salts): mitigates the pH effect better than MSA and sulfate (SO4) salts
- AUC pH 2-6.5 Mean [1]: 12345.28
- AUC pH 6-6.5 Mean [1]: 7492.66
- % Assay ([4]; 5° C. (control), 2 weeks): 98.32%
- % Assay ([4]; 25° C./60% RH (closed), 2 weeks): 98.26%
- % Assay ([4]; 40° C./75% RH (open), 4 weeks): 98.37%
- % Assay ([4]; 50° C., 4 weeks): 98.40%
- % Assay ([4]; HIL/UV, 4 weeks): 98.44%
- Chemical stability ([4]; storage conditions of Table 3, up to 4 weeks): no measure change in chemical stability
- BA Mean [3]: 160.90%
- Cmax [3]: 180 ng/mL
- Tmax [3]: 2 h
- AUC(0-t) [3]: 1340 ng·h/mL
- Mean bioavailability higher than the free base ([3]; famotidine treated dogs, 1 mpk): 60%
- Hygroscopicity [5]: non-hygroscopic
- Moisture uptake ([5]; between 25 to 75% relative humidity at 25° C.): less than 0.5%
- % Assay ([6]; 5° C., 1 Month, corrected for water and total volatiles): 100.3%
- % Assay ([6]; 5° C., 2 weeks): 98.31%
- % Assay ([6]; 5° C., 3 Months, corrected for water and total volatiles): 100.9%
- % Assay ([6]; 5° C., 4 weeks): 98.40%
- % Assay ([6]; 5° C., 6 Months, corrected for water and total volatiles): 100.3%
- % Assay ([6]; 5° C., 12 Months, corrected for water and total volatiles): 100.2%
- % Assay ([6]; 25° C./60% RH (closed), 1 Month, corrected for water and total volatiles): 98.8%
- % Assay ([6]; 25° C./60% RH (closed), 3 Months, corrected for water and total volatiles): 100.9%
- % Assay ([6]; 25° C./60% RH (closed), 4 weeks): 98.39%
- % Assay ([6]; 25° C./60% RH (closed), 6 Months, corrected for water and total volatiles): 99.4%
- % Assay ([6]; 25° C./60% RH (closed), 12 Months, corrected for water and total volatiles): 99.9%
- % Assay ([6]; 40° C./75% RH (open), 1 Month, corrected for water and total volatiles): 99.8%
- % Assay ([6]; 40° C./75% RH (open), 2 weeks): 98.29%
- % Assay ([6]; 40° C./75% RH (open), 3 Months, corrected for water and total volatiles): 98.7%
- % Assay ([6]; 40° C./75% RH (open), 6 Months, corrected for water and total volatiles): 101.0%
- % Assay ([6]; 40° C./75% RH (open), 12 Months, corrected for water and total volatiles): 100.3%
- % Assay ([6]; 50° C., 2 weeks): 98.32%
- % Assay ([6]; HIL/UV, 2 weeks): 98.44%
- Physical stability (physical form) ([6]; by DSC, TGA and PXRD at 2 and 4 weeks, different temperature and humidity conditions): No change in the physical form was detected
- Physical or chemical degradation ([6]; tested temperature and humidity conditions): no significant physical or chemical degradation
- % Assay ([6]; −20° C., 1 Month, corrected for water and total volatiles): 99.9%

Structure (SMILES): CS(=O)(=O)O.[2H]C([2H])([2H])NC(=O)c1nnc(NC(=O)C2CC2)cc1Nc1cccc(-c2ncn(C)n2)c1OC [MSA salt]
- pH-effect Ratio [1]: 0.45
- AUC pH 2-6.5 Mean [1]: 12045.08
- AUC pH 6-6.5 Mean [1]: 5368.76

— patent publication US12291517B2, “Crystalline form of 6-(cyclopropanecarboxamido)-4-((2-methoxy-3-(1-methyl-1H-1,2,4-triazol-3-yl)phenyl)amino)-n-(methyl-D3) pyridazine-3-carboxamide” (Bristol-Myers Squibb Company, priority 2018, dated 2025)
